In brackets after ≈: the same amount, converted by molar mass. Activity calls are given as the source filed them. The calls are words filed in the database; no cut-off is given here.
What was measured:
Type in all cases: functional
[1] = tested on: Escherichia coli; experiment: Antibacterial activity against Escherichia coli BAS849 by CLSI M100-S17 protocol based method
[2] = tested on: Escherichia coli; experiment: Antibacterial activity against wild-type Escherichia coli ATCC 25922 by CLSI M100-S17 protocol based method
[3] = tested on: Escherichia coli; experiment: Antibacterial activity against quinolone resistant Escherichia coli SKM18 by CLSI M100-S17 protocol based method
[4] = tested on: Escherichia coli; experiment: Antibacterial activity against wild-type Escherichia coli ATCC 25922 in presence of human serum albumin by CLSI M100-S17 protocol based method
[5] = tested on: Escherichia coli; experiment: Ratio of MIC in presence to absence of HSA for wild-type Escherichia coli ATCC 25922
[6] = tested on: Klebsiella pneumoniae; experiment: Antibacterial activity against Klebsiella pneumoniae ATCC 35657 by CLSI M100-S17 protocol based method
[7] = tested on: Acinetobacter baumannii; experiment: Antibacterial activity against Acinetobacter baumannii ATCC BAA-747 by CLSI M100-S17 protocol based method
[8] = Selectivity ratio of MIC for quinolone resistant Escherichia coli SKM18 to MIC for wild-type Escherichia coli ATCC 25922
[9] = Selectivity ratio of MIC for wild-type Escherichia coli ATCC 25922 to MIC for Escherichia coli BAS849
[10] = tested on: Escherichia coli; experiment: Antibacterial activity against wild-type Escherichia coli ATCC 25922 infected in iv dosed CD-1 mouse assessed as mouse survival treated for 1 hr followed by reinfection with bacteria measured at 96 hrs post infection; settings: ATCC 25922, iv, read-out: PD50
[11] = tested on: Staphylococcus aureus; experiment: Antibacterial activity against multidrug resistant Staphylococcus aureus by broth microdilution assay
[12] = tested on: Staphylococcus aureus; experiment: Antibacterial activity against wild-type Staphylococcus aureus ATCC 29213 by CLSI M100-S17 protocol based method
[13] = tested on: Staphylococcus aureus; experiment: Inhibition of protein synthesis in wild-type Staphylococcus aureus ATCC 29213 at 1.6 ug/ml
[14] = tested on: Staphylococcus aureus; experiment: Inhibition of DNA synthesis in wild-type Staphylococcus aureus ATCC 29213 at MIC

Compound | MIC [1] | MIC [2] | MIC [3] | MIC [4] | Ratio [5] | also measured
CN(C)c1ccc(-c2[nH]c(=O)c(C(=O)O)c(O)c2C2CCCCC2)cc1 | 6.25 µg/mL (≈ 17.5 µM) | > 62.5 µg/mL | – | – | – | –
CCc1c(-c2ccc(N3CCC(N(C)C)C3)cc2)[nH]c(=O)c(C(=O)O)c1O (stereo not drawn) | 0.19 µg/mL (≈ 0.512 µM) | 0.78 µg/mL (≈ 2.1 µM) | 3.1 µg/mL (≈ 8.35 µM) | 3.1 µg/mL | <4 | MIC [6]: 1.6 µg/mL (≈ 4.31 µM); MIC [7]: 1.6 µg/mL (≈ 4.31 µM); Selectivity ratio [8]: < 4
CN(C)c1ccc(-c2[nH]c(=O)c(C(=O)O)c(O)c2Cc2ccccc2)cc1 | > 12.5 µg/mL | > 12.5 µg/mL | – | – | – | –
CCc1c(-c2ccc(N3CC4CC4(N)C3)cc2)[nH]c(=O)c(C(=O)O)c1O (stereo not drawn) | 0.04 µg/mL (≈ 0.113 µM) | 1.6 µg/mL (≈ 4.5 µM) | 6.3 µg/mL (≈ 17.7 µM) | > 12.5 µg/mL | – | MIC [6]: 3.1 µg/mL (≈ 8.72 µM); MIC [7]: 6.3 µg/mL (≈ 17.7 µM)
CCOC(=O)c1c(O)c(CC)c(-c2ccc(N(C)C)cc2)[nH]c1=O | > 12.5 µg/mL | > 12.5 µg/mL | – | – | – | –
CCc1cc(C(=O)O)c(=O)[nH]c1-c1ccc(N(C)C)cc1 | 0.03 µg/mL (≈ 0.105 µM) | 0.78 µg/mL (≈ 2.72 µM) | > 62.5 µg/mL | – | – | –
CCc1c(-c2ccc(N3CCCCC3)cc2)[nH]c(=O)c(C(=O)O)c1O | 0.39 µg/mL (≈ 1.14 µM) | > 62.5 µg/mL | – | – | >30 | Selectivity ratio [9]: > 50
CN(C)c1ccc(-c2[nH]c(=O)c(C(=O)O)c(O)c2C2CC2)cc1 | 1.56 µg/mL (≈ 4.96 µM) | > 62.5 µg/mL | – | – | – | –
CCc1c(-c2ccc(N3CCC(N4CCCC4)C3)cc2)[nH]c(=O)c(C(=O)O)c1O (stereo not drawn) | 0.19 µg/mL (≈ 0.478 µM) | 1.6 µg/mL (≈ 4.03 µM) | 6.3 µg/mL (≈ 15.9 µM) | 3.1 µg/mL | <4 | MIC [6]: 1.6 µg/mL (≈ 4.03 µM); MIC [7]: 3.1 µg/mL (≈ 7.8 µM); Selectivity ratio [8]: < 4
CCc1c(-c2ccc(N3CC(N)C4(CC4)C3)cc2)[nH]c(=O)c(C(=O)O)c1O (stereo not drawn) | 0.78 µg/mL (≈ 2.11 µM) | 3.1 µg/mL (≈ 8.39 µM) | 6.3 µg/mL (≈ 17.1 µM) | – | – | –
CCn1cc(C(=O)O)c(=O)cc1-c1ccc(N(C)C)cc1 | 0.39 µg/mL (≈ 1.36 µM) | 6.3 µg/mL (≈ 22 µM) | > 62.5 µg/mL | – | – | –
CCc1c(-c2ccc(N3C[C@@H]4[C@H](C3)[C@H]4NC)cc2)[nH]c(=O)c(C(=O)O)c1O | 0.049 µg/mL (≈ 0.133 µM) | 0.39 µg/mL (≈ 1.06 µM) | 3.1 µg/mL (≈ 8.39 µM) | 3.1 µg/mL | 4 - 8 | MIC [6]: 0.39 µg/mL (≈ 1.06 µM); MIC [7]: 1.6 µg/mL (≈ 4.33 µM)
CCc1cc(C(=O)O)c(=O)n(C)c1-c1ccc(N(C)C)cc1 | 1.6 µg/mL (≈ 5.33 µM) | > 62.5 µg/mL | > 62.5 µg/mL | – | – | –
CCc1c(-c2ccc(N(C)C)c(F)c2)[nH]c(=O)c(C(=O)O)c1O | 0.39 µg/mL (≈ 1.22 µM) | 7.8 µg/mL (≈ 24.4 µM) | – | – | – | –
CC(C)c1c(-c2ccc(N(C)C)cc2)[nH]c(=O)c(C(=O)O)c1O | 0.12 µg/mL (≈ 0.379 µM) | 12.5 µg/mL (≈ 39.5 µM) | > 62.5 µg/mL | – | – | –
CCc1c(-c2ccc(N(C)C)cc2F)[nH]c(=O)c(C(=O)O)c1O | ≤ 0.2 µg/mL | > 12.5 µg/mL | – | – | – | –
CCc1c(-c2ccc(C)cc2)[nH]c(=O)c(C(=O)O)c1O | 0.78 µg/mL (≈ 2.85 µM) | > 12.5 µg/mL | – | – | – | –
CCc1c(-c2ccc(OC)cc2)[nH]c(=O)c(C(=O)O)c1O | ≤ 0.2 µg/mL | 7.8 µg/mL (≈ 27 µM) | – | – | – | –
COc1c(N2C[C@@H]3CCCN[C@@H]3C2)c(F)cc2c(=O)c(C(=O)O)cn(C3CC3)c12 [MOXIFLOXACIN] | – | – | – | – | – | ED50 [10]: < 3 mg/kg; MIC50 [11]: 4 µg/mL (≈ 9.96 µM); MIC90 [11]: 32 µg/mL (≈ 79.7 µM)
O=C(O)c1cn(C2CC2)c2cc(N3CCNCC3)c(F)cc2c1=O [CIPROFLOXACIN] | – | – | – | – | – | MIC [11]: 0.125 to 64 µg/mL (≈ 0.377 to 193 µM); MIC50 [11]: 64 µg/mL (≈ 193 µM); MIC90 [11]: > 64 µg/mL

Compound | MIC [1] | MIC [2] | MIC [3] | MIC [4] | Ratio [5] | also measured
CCc1c(-c2ccc(N(C)C)c(OC)c2)[nH]c(=O)c(C(=O)O)c1O | 6.3 µg/mL (≈ 19 µM) | > 12.5 µg/mL | – | – | – | –
CCc1c(-c2ccc(N3CCC(C4(N(C)C)CC4)C3)cc2)[nH]c(=O)c(C(=O)O)c1O (stereo not drawn) | 0.04 µg/mL (≈ 0.0972 µM) | 6.3 µg/mL (≈ 15.3 µM) | > 12.5 µg/mL | – | 4 - 8 | MIC [6]: 12.5 µg/mL (≈ 30.4 µM); MIC [7]: > 25 µg/mL
CCc1c(-c2ccc(N3CCC(C4(N)CC4)C3)cc2)[nH]c(=O)c(C(=O)O)c1O (stereo not drawn) | 0.39 µg/mL (≈ 1.02 µM) | 1.6 µg/mL (≈ 4.17 µM) | – | 12.5 µg/mL | 4 - 8 | MIC [6]: 3.1 µg/mL (≈ 8.08 µM); MIC [7]: 3.1 µg/mL (≈ 8.08 µM)
CCc1c(-c2ccc(N(C)C)cc2)[nH]c(=O)c(C(=O)O)c1OC | 12.5 µg/mL (≈ 39.5 µM) | > 12.5 µg/mL | – | – | – | –
CCc1c(-c2ccc(N3CCNCC3)cc2)[nH]c(=O)c(C(=O)O)c1O | 3.1 µg/mL (≈ 9.03 µM) | 6.3 µg/mL (≈ 18.3 µM) | 62.5 µg/mL (≈ 182 µM) | 15.6 µg/mL | <3 | –
CCc1c(-c2ccc(N3CC=CC3)cc2)[nH]c(=O)c(C(=O)O)c1O | 0.01 µg/mL (≈ 0.0306 µM) | 0.78 µg/mL (≈ 2.39 µM) | > 62.5 µg/mL | 32.2 µg/mL | – | Selectivity ratio [9]: > 50
CCc1c(-c2ccc(N(C)C)cc2)n(Cc2ccccc2)c(=O)c2c(O)cc(=O)oc12 | – | > 12.5 µg/mL | – | – | – | MIC [12]: 3.1 µg/mL (≈ 7.44 µM)
CCc1c(-c2ccc(N(C)C)c(C)c2)[nH]c(=O)c(C(=O)O)c1O | 1.6 µg/mL (≈ 5.06 µM) | > 12.5 µg/mL | – | – | – | –
CCc1c(-c2ccc(N(CC)CC)cc2)[nH]c(=O)c(C(=O)O)c1O | 0.24 µg/mL (≈ 0.726 µM) | > 62.5 µg/mL | – | – | – | Selectivity ratio [9]: > 50
CCc1c(-c2ccc(N3CCC(C4(N)CCC4)C3)cc2)[nH]c(=O)c(C(=O)O)c1O (stereo not drawn) | 0.39 µg/mL (≈ 0.981 µM) | 1.6 µg/mL (≈ 4.03 µM) | 0.19 µg/mL (≈ 0.478 µM) | 12.5 µg/mL | 4 - 8 | MIC [6]: 1.6 µg/mL (≈ 4.03 µM); MIC [7]: 3.1 µg/mL (≈ 7.8 µM)
CCc1c(-c2ccc(N3CCC(C(C)(C)N)C3)cc2)[nH]c(=O)c(C(=O)O)c1O (stereo not drawn) | 0.78 µg/mL (≈ 2.02 µM) | 3.1 µg/mL (≈ 8.04 µM) | 0.78 µg/mL (≈ 2.02 µM) | 12.5 µg/mL | 4 - 8 | MIC [6]: 6.3 µg/mL (≈ 16.3 µM); MIC [7]: > 12.5 µg/mL
CCc1c(-c2ccc(N3CCCC3)cc2)[nH]c(=O)c(C(=O)O)c1O | 0.03 µg/mL (≈ 0.0914 µM) | 1.6 µg/mL (≈ 4.87 µM) | > 62.5 µg/mL | > 62.5 µg/mL | >30 - 40 | Selectivity ratio [9]: > 50
CCc1c(-c2ccc(N3CCC(C)(CN)C3)cc2)[nH]c(=O)c(C(=O)O)c1O (stereo not drawn) | 0.39 µg/mL (≈ 1.05 µM) | 1.6 µg/mL (≈ 4.31 µM) | 6.3 µg/mL (≈ 17 µM) | – | 4 - 8 | –
CCc1c(-c2ccc(N(C)C)cc2OC)[nH]c(=O)c(C(=O)O)c1O | 6.3 µg/mL (≈ 19 µM) | > 12.5 µg/mL | – | – | – | –
CCc1c(-c2ccc(N(C)C)cc2C)[nH]c(=O)c(C(=O)O)c1O | 6.3 µg/mL (≈ 19.9 µM) | > 12.5 µg/mL | – | – | – | –
Cc1c(-c2ccc(N(C)C)cc2)[nH]c(=O)c(C(=O)O)c1O | 0.39 µg/mL (≈ 1.35 µM) | 31.3 µg/mL (≈ 109 µM) | 3.1 µg/mL (≈ 10.8 µM) | – | – | –
CCc1c(-c2ccc(N3C[C@@H]4[C@H](C3)[C@H]4N(C)C)cc2)[nH]c(=O)c(C(=O)O)c1O | 0.25 µg/mL (≈ 0.652 µM) | 6.3 µg/mL (≈ 16.4 µM) | 12.5 µg/mL (≈ 32.6 µM) | > 12.5 µg/mL | 4 - 8 | MIC [7]: > 12.5 µg/mL
CCc1c(-c2ccc(N3CCC(CNC)C3)cc2)[nH]c(=O)c(C(=O)O)c1O (stereo not drawn) | 0.39 µg/mL (≈ 1.05 µM) | 1.6 µg/mL (≈ 4.31 µM) | 7.8 µg/mL (≈ 21 µM) | 6.3 µg/mL | 4 - 8 | MIC [6]: 6.3 µg/mL (≈ 17 µM); MIC [7]: 12.5 µg/mL (≈ 33.7 µM)
CCc1c(O)c(C(=O)O)c(=O)n(Cc2ccccc2)c1-c1ccc(N(C)C)cc1 | – | > 12.5 µg/mL | – | – | – | inhibition [13]: Active; MIC [12]: 1.6 µg/mL (≈ 4.08 µM); inhibition [14]: Active
CCc1c(-c2ccc(Cl)cc2)[nH]c(=O)c(C(=O)O)c1O | 1.6 µg/mL (≈ 5.45 µM) | > 12.5 µg/mL | – | – | – | –

Source: ChEMBL document CHEMBL4043274, “4-Hydroxy-2-pyridones: Discovery and evaluation of a novel class of antibacterial agents targeting DNA synthesis” (Bioorg Med Chem Lett, 2017)
